In PubChem BioAssay AID1549 (Sanford-Burnham Center for Chemical Genomics, 2009):
Calls of active or inactive are those of the source. How the calls were made is not given here.

Target: Influenza A virus M2 proton channel (A/TW/4845/1999 H1N1)
Test: M2 proton channel binding, NMR based, influenza A virus H1N1 strain (AID 1549)
Conditions: NMR binding screen, M2 protein

Compound	Kd
CNC(=O)C1CC(=O)N(c2ccc(O)cc2)C1 (stereo unspecified)	> 4 mM (inactive)
Cc1cc(N2CCCC2=O)c(N)cc1N	> 4 mM (inactive)
Cc1ccc(NC(=O)C(=O)Nc2ccccn2)cc1	> 4 mM (inactive)
CCOC(=O)C1CN(C)CCN1C (stereo unspecified)	> 4 mM (inactive)
CC(=O)OC/C=C(\C)CC/C=C(\C)CC/C=C(\C)CC/C=C(\C)CC/C=C(\C)CC/C=C(\C)CC/C=C(\C)CC/C=C(\C)CCC=C(C)C	> 4 mM (inactive)
COc1cc(OC)c2c(=O)c(OC)c(-c3ccc(OC)c(OC)c3)oc2c1	> 4 mM (inactive)
N#Cc1cnn2c(C(F)(F)F)cc(C(F)(F)F)nc12	> 4 mM (inactive)
CC(=O)/C=C\[C@@H]1[C@@]2(C)CCCC(C)(C)C2CC[C@@]1(C)O (stereo partly specified)	> 4 mM (inactive)
Oc1cc(O)c2c(c1)O[C@H](c1ccc(O)c(O)c1)[C@H](O)C2	> 4 mM (inactive)
Nc1ccc(-c2cnco2)cc1	> 4 mM (inactive)
CCC1(CC)C(=O)NC(=O)N=C1N	> 4 mM (inactive)
NC(=O)c1oc2ccccc2c1N	> 4 mM (inactive)
CCCSc1nnc2[nH]c(=O)cc(N)n12	> 4 mM (inactive)
CC(=O)Nc1c(C#N)c(C(C)(C)C)cn1C	> 4 mM (inactive)
Cc1ccnc(NS(=O)(=O)c2ccccc2)n1	> 4 mM (inactive)
O=C1CC(=O)N(c2ccccc2)c2ccccc21	> 4 mM (inactive)
O=C(CNC(=O)c1ccc(F)cc1)NC1=NCCS1	> 4 mM (inactive)
CCSc1nc(C)c(CC)c(C)c1C(N)=O	> 4 mM (inactive)
O=[N+]([O-])c1cccc(CN2CCC(O)CC2)c1	> 4 mM (inactive)

Compound	Kd
O=C1NNC(=O)C2C3c4ccccc4C(c4ccccc43)C12 (stereo unspecified)	> 4 mM (inactive)
Cc1ccccc1NC(=O)/C=C\C(N)=O	> 4 mM (inactive)
COc1cc2c(cc1OC)[C@@H]1C(=O)c3ccc4oc(C(C)C)cc4c3O[C@@H]1CO2	> 4 mM (inactive)
CCOC(=O)C(C)c1n[nH]c(=O)c2ccccc12 (stereo unspecified)	> 4 mM (inactive)
CC(C)[C@@H]1CC[C@@H](C)CC1=O	> 4 mM (inactive)
CN1C(=O)/C(=C/c2ccc(O)cc2O)SC1=S	> 4 mM (inactive)
O=C(OC[C@H]1O[C@H](OC(=O)c2cc(O)c(O)c(OC(=O)c3cc(O)c(O)c(O)c3)c2)[C@H](OC(=O)c2cc(O)c(O)c(OC(=O)c3cc(O)c(O)c(O)c3)c2)[C@@H](OC(=O)c2cc(O)c(O)c(OC(=O)c3cc(O)c(O)c(O)c3)c2)[C@@H]1OC(=O)c1cc(O)c(O)c(OC(=O)c2cc(O)c(O)c(O)c2)c1)c1cc(O)c(O)c(OC(=O)c2cc(O)c(O)c(O)c2)c1	> 4 mM (inactive)
O=C(O)Cn1nnnc1-c1ccc(F)cc1	> 4 mM (inactive)
OC1CCC(C(F)(F)F)CC1 (stereo unspecified)	> 4 mM (inactive)
CC1CCC(N2CCN(c3ncccn3)CC2)CC1 (stereo unspecified)	> 4 mM (inactive)
Cc1c(C(=O)Nn2cnnc2)oc2ccccc12	> 4 mM (inactive)
CCOC(=O)c1c(C)cc(O)cc1O	> 4 mM (inactive)
COC(=O)c1cc2ccccc2cn1	> 4 mM (inactive)
O=C1C=C(Nc2ccc(O)cc2)c2ccccc2C1=O	> 4 mM (inactive)
COc1ccc(C)cc1S(=O)(=O)Nc1ccccc1C	> 4 mM (inactive)
Cc1ccc2c(c1)CCCN2C(=O)c1ccncc1	> 4 mM (inactive)
O=S(=O)(c1cccc2cccnc12)N1CCOCC1	> 4 mM (inactive)
O=[n+]1cc(-c2ccccc2)n([O-])c2c1CCC2	> 4 mM (inactive)
CCOc1ccccc1C(=O)NC1=NCCS1	> 4 mM (inactive)

Compound	Kd
O=C(CSc1ccnc(=O)[nH]1)NCc1ccccc1	> 4 mM (inactive)
O=c1c(-c2ccc(O)cc2)coc2cc(O)ccc12	> 4 mM (inactive)
O=C(CSC1=NCCS1)N1CCc2ccccc21	> 4 mM (inactive)
Cc1nn(CC(=O)N2CCCCC2)c(=O)c2ccccc12	> 4 mM (inactive)
C[n+]1ccc(C(=O)[O-])cc1	> 4 mM (inactive)
COc1c(-c2coc3cc4c(cc3c2=O)CC(O)C(C)(C)O4)ccc2c1C=CC(C)(C)O2 (stereo unspecified)	> 4 mM (inactive)
COCCn1c(SC)nc2c1c(=O)[nH]c(=O)n2C	> 4 mM (inactive)
NCc1ccc(-c2ccccn2)s1	> 4 mM (inactive)
COC(=O)C[C@H]1C(C)(C)C(=O)[C@@H]2CC3=C(CC[C@]4(C)C3=CC(=O)O[C@H]4c3ccoc3)C1(C)C2=O	> 4 mM (inactive)
O=c1[nH]cc(NC(=S)N2CCOCC2)c(=O)[nH]1	> 4 mM (inactive)
CCC(C)C(NC)C(=O)O (stereo unspecified)	> 4 mM (inactive)
O=C(NCO)c1ccc([N+](=O)[O-])cc1	> 4 mM (inactive)
CNC(=O)c1ccccc1-c1ccccc1	> 4 mM (inactive)
COc1ccc(-c2cc(=O)c3c(O)cc(O[C@@H]4O[C@H](CO[C@H]5O[C@H](C)[C@@H](O)[C@H](O)[C@@H]5O)[C@@H](O)[C@H](O)[C@H]4O)cc3o2)cc1O	> 4 mM (inactive)
C=C[C@@](C)(O)CCC1C(=C)C[C@H](OC(C)=O)C2C(C)(C)CCCC12C (stereo partly specified)	> 4 mM (inactive)
CC1(C)CN=C(Nc2nc3ccccc3s2)S1	> 4 mM (inactive)
Cc1ccccc1-n1c(N)cc(=O)[nH]c1=S	> 4 mM (inactive)
Oc1cnc2ccccc2c1CN1CCOCC1	> 4 mM (inactive)
